# Tests used:
# [1] = test system: A. brasiliensis, C. albicans, E. coli, P. aeruginosa, and S. aureus; assay: Challenge test (USP-51 / European Pharmacopeia) in tryptic soy broth, log reduction of CFU; type: cell-based; details: tryptic soy broth pH 6.5
# Text: (§1) Challenge Testing Methodology—Experimental—Several industry standard testing methodologies exist for evaluating antimicrobial efficacy. Two common examples of such standards include United States Pharmacopeia (USP 51) and European Pharmacopeia (EP) testing methodology. These methodologies are particularly useful in that they have criteria and methodologies distinguishing between oral products, topical products and pharmaceutical products, among others.
# (§2) In conducting the testing, the compound or product to be evaluated is separated out into individual containers, each being challenged with one of the method-specified microorganisms (S. aureus—ATCC 6538 USP51/EP, E. coli—ATCC 8739 EP, P. aeruginosa—ATCC 9027 USP51/EP, C. albicans—ATCC 10231 USP51/EP, and A. brasiliensis—ATCC 16404 USP51/EP) at a concentration of >1×10^5 CFU/g or ml. The initial concentration of each microorganism is determined by inoculating a control substance and using standard dilution and plating techniques. […] The inoculated broth is held at room temperature and is evaluated at specific intervals. USP-51 evaluates at the 14-day and 28-day intervals. EP evaluates results at 2-day, 7-day, 14-day, and 28-day. At each contact time, the inoculated product is chemically neutralized and plated using standard dilution and plating techniques. After a period of incubation (48 hours for bacteria, up to 5 days for yeast and mold) surviving microorganisms are counted, and the log reduction of each microorganism at each interval is reported.
# For the European Pharmacopeia, a “pass” test for efficacy is a two-log reduction for bacteria after two days, a three-log reduction in bacteria after […], a two-log reduction in mold and yeast at 14 days and no increase at 28 days. For the USP-51, a two-log reduction in bacteria is required at 14 days and no increase at 28 days. For mold and yeast, USP-51 requires no increase at 14 days and 28 days. “No increase” is defined as a […]. […]
# The challenge testing was conducted by a Food and Drug Administration (FDA) certified outside testing lab utilizing standard USP-51 and European Pharmacopeia methodologies as summarized in the Challenge Testing Methodology section above. Antimicrobial efficacy was determined in tryptic soy broth growth media, pH-balanced with sodium hydroxide or hydrochloric acid as required to achieve specific pH ranges. […]
# The boosting efficacy of various concentrations of EDTA (0 to 0.5 wt. %, with “0” being a control without the EDTA booster) in tryptic soy broth growth media at pH 6.5 was evaluated against various microbes (A. brasiliensis, C. albicans, E. coli, P. aeruginosa, and S. aureus). […]
# [2] = test system: A. brasiliensis; assay: Challenge test in tryptic soy broth, log reduction of CFU; type: cell-based; details: with 0.25 wt. % sodium benzoate and 0.25 wt. % benzyl alcohol, 14 and 28 days
# Description: (§3) For the European Pharmacopeia, a “pass” test for efficacy is a two-log reduction for bacteria after two days, a three-log reduction in bacteria after […], a two-log reduction in mold and yeast at 14 days and no increase at 28 days.
# Data was reported at 30 minutes, two days, fourteen days and twenty-eight days.
# […] The data was collected at 30 minutes, two days, fourteen days and twenty-eight days.
# [3] = test system: S. aureus, E. coli, P. aeruginosa, C. albicans, and A. brasiliensis; assay: Challenge test in skin lotion formulation, European Pharmacopeia criteria; type: cell-based; details: for European Pharmacopeia 14-day criteria / European Pharmacopeia two-day criteria: skin lotion; for European Pharmacopeia 14-day criteria: 0.25 wt. % booster with 0.5 wt. % sodium benzoate and 0.66 wt. % benzyl alcohol; for European Pharmacopeia two-day criteria: 0.25 wt. % booster with 0.5 wt. % sodium benzoate and 1 wt. % benzyl alcohol; for European Pharmacopeia two-day and 14-day criteria: skin lotion pH 6.5
# Description: as §3
# Skin Lotion Formulation Experimental—An exemplary, model skin lotion having a pH of 6.5 as set forth below in Table 1 was prepared for testing. The invention is not limited to use in this specific lotion but was used to illustrate the advantages of the invention.
# In this example, 3-phenyl propanol was used to enhance the performance of low concentrations of sodium benzoate and benzyl alcohol. This example evaluated boosting performance of 3-phenyl propanol in a skin lotion formulation having a pH of 6.5, the ingredients of which are listed in Table 1. Each formulation contained 0.25 wt. % of sodium benzoate and 0.25 wt. % of benzyl alcohol.
# (§4) In this example, EDTA was used to enhance the performance of sodium benzoate and benzyl alcohol in a skin lotion formulation at pH, the ingredients of which are set forth in Table 1. Each formulation contained 0.5 wt. % of sodium benzoate and 0.25 wt. % of EDTA with benzyl alcohol varying up to 1 wt. %. The control was comprised of 0.5 wt. % sodium benzoate and 1 wt. % benzyl alcohol without EDTA.
# as §4, with “example, sodium gluconate” for “example, EDTA”, “at pH 6.5,” for “at pH,”, “of sodium gluconate,” for “of EDTA”, “control” for “control was”, “comprised” for “comprised of”, “without sodium gluconate.” for “without EDTA.”
# In this example, caprylyl glycol was used to enhance the performance of sodium benzoate and benzyl alcohol in a skin lotion formulation at pH 6.5, the ingredients of which are set forth in Table 1. FIGS. 27 and 28 reflect log reduction data of colony forming units (CFU) of microbe strains exposed to sodium benzoate, benzyl alcohol, and caprylyl glycol concentrations in skin lotion media after two and fourteen days. […] A control was utilized comprising 0.5 wt. % sodium benzoate and 1 wt. % benzyl alcohol without caprylyl glycol.
# [4] = test system: A. brasiliensis, C. albicans, E. coli, P. aeruginosa, and S. aureus; assay: Challenge test (USP-51 / European Pharmacopeia) in tryptic soy broth, log reduction of CFU; type: cell-based
# [5] = test system: Pseudomonas aeruginosa; details: tryptic soy broth pH 6.5; with 0.25 wt. % sodium benzoate and 0.25 wt. % benzyl alcohol; two days
# Text: as §1
# as §2, with “At each contact time, the inoculated product is chemically neutralized and plated using standard dilution and plating techniques.” left out, “reported. […]” for “reported.”
# [6] = test system: K. aerogenes (ATCC 13048) and P. aeruginosa (ATCC 9027); assay: Challenge test in tryptic soy broth at pH 9.0, log reduction of CFU; type: cell-based; details: 2.5 wt. % alone; tryptic soy broth pH 9.0; up to one week
# Text: FIG. 29 reflects log reduction data for colony forming units (CFU) of microbe strains in tryptic soy broth growth media at pH 9.0 up to 28 days.
# FIG. 30 reflects log reduction data for colony forming units (CFU) of microbe strains exposed to benzylamine at 2.5 wt. % in tryptic soy broth at pH 9.0 up to one week.
# Strains of K. aerogenes (ATCC 13048) and P. aeruginosa (ATCC 9027) were utilized for testing as they are commonly found in many water-based products, including without limitation cosmetics and coatings. These organisms were challenged into the soy broth using the same methods as in the other examples. Time points were selected based on time points from ASTM 2574, which is a method for evaluating antimicrobial efficacy in waterborne emulsion based paints.
# [7] = tryptic soy broth pH 8, booster at various concentrations with 0.25 wt. % sodium benzoate and 0.25 wt. % benzyl alcohol
compound,measurement,setting,value
O=C([O-])[C@H](O)[C@@H](O)[C@H](O)[C@H](O)CO.[Na+] [sodium gluconate],log reduction as a function of booster concentration,"[1]; booster 0 to 0.5 wt. % with 0.25 wt. % sodium benzoate and 0.25 wt. % benzyl alcohol, seen at 14 and 28 days",increased log reduction with increased concentration
same,booster strength compared with EDTA,[1]; sodium benzoate/benzyl alcohol combination,not as strong a booster as EDTA
same,activity against the mold A. brasiliensis,[2]; tryptic soy broth pH 6.5,Good activity
same,activity against the mold A. brasiliensis,[2]; tryptic soy broth pH 8,Particularly good activity
same,European Pharmacopeia 14-day criteria,[3],met the 14-day criteria
same,European Pharmacopeia two-day criteria,[3],met the two-day criteria
same,antimicrobial performance (log reduction of CFU),[4]; [7],improved antimicrobial performance
CCCCCCC(O)CO (stereo not drawn) [caprylyl glycol],antimicrobial boosting potential at lowest use concentration,[1]; 1 wt. % booster with 0.25 wt. % sodium benzoate and 0.25 wt. % benzyl alcohol,outstanding antimicrobial boosting potential
same,two-day log reduction,"[1]; caprylyl glycol up to 5 wt. %, regardless of concentration, 0.25 wt. % sodium benzoate and 0.25 wt. % benzyl alcohol, two days",two-log reduction achieved against all microbes tested
same,European Pharmacopeia two-day and 14-day criteria,[3]; 0.5 wt. % booster with 0.25 wt. % sodium benzoate and 0.25 wt. % benzyl alcohol,met the two-day and 14-day criteria
same,antimicrobial performance (log reduction of CFU),[4]; [7],improved antimicrobial performance
same,two-day log reduction,"[4]; tryptic soy broth pH 8, caprylyl glycol up to 5 wt. %, regardless of concentration, 0.25 wt. % sodium benzoate and 0.25 wt. % benzyl alcohol, two days",two-log reduction achieved against all microbes tested
"O=C(O)CN(CCN(CC(=O)O)CC(=O)O)CC(=O)O [EDTA, ethylenediaminetetraacetic acid]",activity against Pseudomonas aeruginosa,[5],particularly good activity
same,European Pharmacopeia 14-day criteria,[3],met the 14-day criteria
same,European Pharmacopeia two-day criteria,[3],met the two-day criteria
same,antimicrobial performance (log reduction of CFU),"[4]; tryptic soy broth pH 6.5, booster 0 to 0.5 wt. % with 0.25 wt. % sodium benzoate and 0.25 wt. % benzyl alcohol, 30 minutes, two, fourteen, twenty-eight days",improved antimicrobial performance
same,log reduction as a function of booster concentration,"[4]; tryptic soy broth pH 8.0, booster 0 to 0.5 wt. % with 0.25 wt. % sodium benzoate and 0.25 wt. % benzyl alcohol",increased log reduction with increasing concentrations
same,antimicrobial performance (log reduction of CFU),[4]; [7],improved antimicrobial performance
NCc1ccccc1 [benzylamine],antimicrobial effectiveness (log reduction of CFU) compared to control,[6],antimicrobial effectiveness achieved
"OCc1ccccc1 [benzyl alcohol, reference compound]",antimicrobial effectiveness (log reduction of CFU) compared to control,[6],exactly the same as for benzylamine
OCCCc1ccccc1 [3-phenyl propanol],European Pharmacopeia two-day and 14-day criteria,[3]; 0.35 wt. % booster with 0.25 wt. % sodium benzoate and 0.25 wt. % benzyl alcohol,met the two-day and 14-day criteria

# From patent publication US20200305426A1, “BOOSTERS FOR ANTIMICROBIAL, PRESERVATIVE AND BIOCIDAL APPLICATIONS” (EMERALD KALAMA CHEMICAL, LLC, priority 2017, published 2020)
